The values below come from PubChem BioAssay (NCI).

Test systems include RPMI-8226 leukemia; MALME-3M melanoma; HOP-62 NSCLC; NCI-H23 lung; OVCAR-4 ovarian; OVCAR-3 ovarian; COLO 205 colon; SF-295 CNS; UO-31 renal; NCI-H460 lung; LOX IMVI melanoma; DMS 114 small cell lung; IGROV1 ovarian; HCT-116 colon; SN12C renal; MOLT-4 leukemia; A549 NSCLC; SK-MEL-2 melanoma; HL-60(TB) leukemia; K-562 leukemia.
Common to all, as to experiment: inhibition of tumour cell growth, NCI panel, 48 h

SMILES strings stand for the structures.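 Cultured in 96-well plates, cells were exposed to test compound for 48 hours across five concentrations. Definition used: TGI = concentration required for complete inhibition of growth.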

Turning to `Cn1cnc(CCc2ccccc2)n1`, the TGI with RPMI-8226 leukemia, with MALME-3M melanoma, with HOP-62 NSCLC, in the assay with NCI-H23 lung, with OVCAR-4 ovarian and with OVCAR-3 ovarian was > 100 µM in each case. Moreover, the TGI in the assay with COLO 205 colon, with SF-295 CNS, with UO-31 renal, in the assay with NCI-H460 lung, in the assay with LOX IMVI melanoma and with DMS 114 small cell lung was > 100 µM throughout. Moreover, the TGI in the assay on IGROV1 ovarian, in the assay on HCT-116 colon, in the assay with SN12C renal, in the assay on MOLT-4 leukemia, with A549 NSCLC and in the assay with SK-MEL-2 melanoma was > 100 µM each time. Further, the TGI with HL-60(TB) leukemia and with K-562 leukemia was > 100 µM throughout.
With `C=CC/C=C/Cc1csc(C(C)(C)C(O)C/C=C/C(=C)CCNC(=O)OC)n1` (stereo not given), the TGI in the assay with RPMI-8226 leukemia, with MALME-3M melanoma, in the assay with HOP-62 NSCLC, in the assay with NCI-H23 lung, in the assay on OVCAR-4 ovarian and in the assay on OVCAR-3 ovarian was > 100 µM each time. In addition, the TGI with COLO 205 colon is > 100 µM; with SF-295 CNS, > 100 µM; in the assay on UO-31 renal it was > 100 µM; in the assay on NCI-H460 lung, > 100 µM; with LOX IMVI melanoma, > 100 µM; in the assay with DMS 114 small cell lung, 2.91 µM. Moreover, the TGI in the assay with IGROV1 ovarian, in the assay on HCT-116 colon, in the assay on SN12C renal, with MOLT-4 leukemia, in the assay on A549 NSCLC and with SK-MEL-2 melanoma was > 100 µM in each case. Besides, the figures for the TGI in the assay with HL-60(TB) leukemia and with K-562 leukemia were > 79.4 µM and > 81.5 µM, respectively.
As for `Cc1[nH]ccc2c1[nH]c1cc(=O)ccc12`, the TGI in the assay on RPMI-8226 leukemia, in the assay on MALME-3M melanoma, in the assay on HOP-62 NSCLC, with NCI-H23 lung, with OVCAR-4 ovarian and in the assay with OVCAR-3 ovarian was > 100 µM in each case. The TGI in the assay with COLO 205 colon, in the assay with SF-295 CNS, with UO-31 renal, in the assay with NCI-H460 lung, with LOX IMVI melanoma and in the assay with DMS 114 small cell lung was > 100 µM throughout. The TGI in the assay on IGROV1 ovarian is > 100 µM; in the assay on HCT-116 colon, > 100 µM; in the assay on SN12C renal, > 100 µM; with MOLT-4 leukemia it was 85.9 µM; in the assay on A549 NSCLC, > 100 µM; with SK-MEL-2 melanoma it was > 100 µM. For the same compound, the TGI in the assay on HL-60(TB) leukemia and in the assay on K-562 leukemia was > 100 µM in each case.
Regarding `COc1cc(Cn2c3ccccc3c3cc(C)c4c(c32)C=CC(C)(CCC=C(C)C)O4)cc2c1[nH]c1ccccc12` (stereo not given), the TGI in the assay on RPMI-8226 leukemia, in the assay with MALME-3M melanoma, in the assay on HOP-62 NSCLC, in the assay with NCI-H23 lung, with OVCAR-4 ovarian and in the assay with OVCAR-3 ovarian was > 100 µM in each case. In addition, the TGI in the assay with COLO 205 colon, in the assay with SF-295 CNS, in the assay on UO-31 renal, in the assay with NCI-H460 lung, with LOX IMVI melanoma and with DMS 114 small cell lung was > 100 µM in each case. Also, the TGI in the assay on IGROV1 ovarian, with HCT-116 colon, in the assay with SN12C renal, with MOLT-4 leukemia, with A549 NSCLC and in the assay on SK-MEL-2 melanoma was > 100 µM each time. Also, the TGI in the assay on HL-60(TB) leukemia and with K-562 leukemia was > 100 µM in each case.
Take `CC1=C(C(=O)O)N2C(=O)[C@@H](NC(=O)C(c3ccc(O)cc3)N3CSC(=S)N(C(C)C)C3)C2SC1` (stereo not given in full): the TGI with RPMI-8226 leukemia, in the assay with MALME-3M melanoma, with HOP-62 NSCLC, in the assay on NCI-H23 lung, with OVCAR-4 ovarian and in the assay with OVCAR-3 ovarian was > 100 µM each time. Further, the TGI with COLO 205 colon, in the assay with SF-295 CNS, with UO-31 renal, with NCI-H460 lung, in the assay with LOX IMVI melanoma and in the assay with DMS 114 small cell lung was > 100 µM throughout. For the same compound, the TGI in the assay on IGROV1 ovarian, in the assay with HCT-116 colon, in the assay with SN12C renal, with MOLT-4 leukemia, in the assay with A549 NSCLC and in the assay on SK-MEL-2 melanoma was > 100 µM throughout. Besides, the TGI in the assay on HL-60(TB) leukemia and in the assay on K-562 leukemia was > 100 µM throughout.
